# According to patent US9771405B2, “Nucleic acids encoding for chimeric natriuretic polypeptides with unique pharmacologic profiles” (Mayo Foundation for Medical Education and Research, priority 2008, dated 2017):
# Assay: BAA-NP, BUA-NP or human BNP infusion in anesthetized dogs: renal, hemodynamic and neurohumoral measurements
# Assay type: in vivo, dog
# Conditions: for net renal generation of cGMP / plasma cGMP / urinary cGMP excretion / urinary sodium excretion / urine flow: 30 and 60 minutes of infusion vs. pre-infusion; for plasma ANP immunoreactivity / plasma CNP immunoreactivity: RIA; for glomerular filtration rate: inulin clearance; for renal perfusion pressure: mean arterial pressure minus right atrial pressure; for renal perfusion pressure / mean arterial pressure: BNP at equimolar dose
# Experimental: BAA-NP and BUA-NP were reconstituted in normal saline and were infused at 1 mL/minute. Dogs were maintained on a Na^+-controlled diet (Hill's i/d® canine diet, Hill's Pet Nutrition, Inc., Topeka, Kans.). In the evening before the experiment, the dog was fasted with ad lib access to water and was given lithium carbonate 300 mg orally for assessment of renal tubular function on the next day.
# On the day of the experiment, the dog was anesthetized with pentobarbital sodium (induction 6-20 mg/kg i.v., maintenance 5-15 mg/kg/h i.v.) and fentanyl (0.04-0.12 mg/kg i.v., maintenance 0.04-0.18 mg/kg/h), and was intubated and mechanically ventilated (Harvard Apparatus, Holliston, Mass.) with 3 L/minute of 02 (tidal volume 15 mL/kg, 12 cycles/minute). The femoral artery was cannulated for blood pressure monitoring and for blood sampling. The femoral vein was cannulated for infusion of inulin and normal saline. The saphenous vein was cannulated for polypeptide infusion. A balloon-tipped thermodilution catheter (Edwards Lifesciences, Irvine, Calif.) was used for monitoring hemodynamics and body temperature (maintained at 38±1° C.). Cardiac output (CO) was measured in triplicate and averaged (model 9510-A, American Edwards Laboratories, Irvine, Calif.). Hemodynamic data were digitally recorded and analyzed (Sonometrics Corporation, London, ON). The left kidney was exposed via a flank incision. The ureter was cannulated for timed urine collection. An electromagnetic flow probe was placed on the renal artery for measuring renal blood flow (Burnett et al., Am. J. Physiol., 247(5 Pt 2):F863-6 (1984)). A weight-adjusted bolus of inulin was given, followed by an inulin infusion (1 mL/minute) to achieve plasma levels of 40-60 mg/dL (Burnett et al., Am. J. Physiol., 247(5 Pt 2):F863-6 (1984); Chen et al., Am. J. Physiol. Regul. Integr. Comp. Physiol., 288(5):R1093-7 (2005); and Margulies et al., J. Clin. Invest., 88(5):1636-42 (1991)), for measuring GFR by inulin clearance. Normal saline was infused (1 mL/minute) and was temporarily discontinued during peptide infusion (1 mL/minute).
# Following equilibration of approximately 60 minutes in duration, the BAA-NP or BUA-NP polypeptide was infused for 75 minutes. Hemodynamic and renal data, as well as blood and urine samples, were collected for each 30-minute clearance: pre-infusion, at 30 and 60 minutes of infusion (time denotes mid-clearance). Inulin clearance was used for measuring glomerular filtration rate (GFR). The lithium clearance technique was used for quantifying proximal and distal fractional reabsorption of Na^+ (PFRNa and DFRNa, respectively).
# Plasma and urinary ANP, CNP, and cGMP were measured by radioimmunoassays (RIA) (Chen et al., Am. J. Physiol. Regul. Integr. Comp. Physiol., 288(5):R1093-7 (2005); Burnett et al., Science, 231(4742):1145-7 (1986); Steiner et al., J. Biol. Chem., 247(4):1106-13 (1972); Supaporn et al., Kidney Int., 50(5):1718-25 (1996); and Cataliotti et al., Am. J. Physiol., 283(3):F464-72 (2002)). Plasma renin activity (Haber et al., J. Clin. Endocrinol. Metab., 29(10):1349-55 (1969)), angiotensin II (Luchner et al., Hypertension, 28(3):472-7 (1996)), and aldosterone (Sancho and Haber, J. Clin. Endocrinol. Metab., 47(2):391-6 (1978)) were quantified. Plasma and urinary lithium levels were measured by flame emission spectrophotometry (model 357, Instrumentation Laboratory, Wilmington, Mass.) (Margulies et al., J. Clin. Invest., 88(5):1636-42 (1991)). The lithium clearance technique (CLLi) was used to assess PFRNa and DFRNa as follows (Chen et al., Am. J. Physiol. Regul. Integr. Comp. Physiol., 288(5):R1093-7 (2005)): PFRNa=[1−(CLLi/GFR)]×100 and DFRNa=[(CLLi−CLNa)/CLLi]×100, where CLLi=[urine Li^+]×urine flow/[plasma Li^+] and CLNa=[urine Na^+]×urine flow/[plasma Na^+]. Net renal production of cGMP was determined (Margulies et al., J. Clin. Invest., 88(5):1636-42 (1991)): (urinary cGMP×urine flow rate)−(plasma cGMP×GFR). […]
# [1] = anesthetized dogs, i.v. infusion
# [2] = anesthetized dogs, i.v. infusion, vs. pre-infusion
# [3] = anesthetized dogs, i.v. infusion, lithium clearance technique, vs. pre-infusion
# [4] = at 30 minutes of infusion, BNP compared to BAA-NP or BUA-NP, equimolar dose
# [5] = at 60 minutes of infusion, BNP compared to BAA-NP or BUA-NP, equimolar dose
substance,measurement,setting,value
"TAPRSLRRSSCFGRKMDRIS-SSSGLGCNSFRY (TAPRSLRRSSCFGRKMDRISSSSGLGCNSFRY) [BUA-NP, 32-residue chimeric natriuretic polypeptide: human urodilatin residues 1-10, human mature BNP residues 10-26, ANP C-terminus]",activation of cGMP,BUA-NP compared with BAA-NP,greater activation
same,distal fractional reabsorption of sodium,BUA-NP compared with BAA-NP,greater reductions
same,natriuresis and diuresis,BUA-NP compared with BAA-NP,enhanced
same,proximal fractional reabsorption of sodium,BUA-NP compared with BAA-NP,greater reductions
same,net renal generation of cGMP,[1],significantly increased
same,plasma cGMP,[1],significantly increased
same,urinary cGMP excretion,[1],significantly increased
same,urinary sodium excretion,[1],significantly increased
same,urine flow,[1],significantly increased
same,plasma ANP immunoreactivity,[2],significantly increased
same,plasma CNP immunoreactivity,[2],significantly increased
same,glomerular filtration rate,[2],preserved
same,distal fractional reabsorption of sodium,[3],significantly reduced
same,proximal fractional reabsorption of sodium,[3],significantly reduced
same,renal perfusion pressure,[2],preserved
same,cardiac output,[2],preserved
same,hematocrit (hemoconcentration),[2],significant increase
same,pulmonary arterial pressure,[2],significantly reduced
same,pulmonary capillary pressure,[2],significantly reduced
same,renal blood flow,[2],significantly enhanced
same,renal vascular resistance,[2],significantly reduced
same,right atrial pressure,[2],significantly reduced
same,urinary potassium excretion,[2],significantly increased
same,mean arterial pressure,[2],mild decrease
same,change in renal perfusion pressure from baseline,[4],preserved
same,change in renal perfusion pressure from baseline,[5],preserved
"human BNP: human BNP natriuretic polypeptide, comparator infused at equimolar dose [reference compound]",renal perfusion pressure,[2],significantly reduced
same,mean arterial pressure,[2],significantly reduced
same,change in mean arterial pressure from baseline,[4],significantly greater reduction
same,change in renal perfusion pressure from baseline,[4],significantly greater decreases
same,change in renal perfusion pressure from baseline,[5],significantly greater decreases
same,change in mean arterial pressure from baseline,"at 60 minutes of infusion, BNP versus BAA-NP",greater decrease
"SLRRSSCFGRKMDRISSSSG-LGCNSFRY (SLRRSSCFGRKMDRISSSSGLGCNSFRY) [BAA-NP, 28-residue chimeric natriuretic polypeptide: human ANP residues 1-6, human mature BNP residues 10-26, human ANP residues 24-28]",net renal generation of cGMP,[1],significantly increased
same,plasma cGMP,[1],significantly increased
same,urinary cGMP excretion,[1],significantly increased
same,urinary sodium excretion,[1],significantly increased
same,urine flow,[1],significantly increased
same,plasma ANP immunoreactivity,[2],significantly increased
same,plasma CNP immunoreactivity,[2],significantly increased
same,glomerular filtration rate,[2],preserved
same,distal fractional reabsorption of sodium,[3],significantly reduced
same,proximal fractional reabsorption of sodium,[3],significantly reduced
same,cardiac output,[2],preserved
same,hematocrit (hemoconcentration),[2],significant increase
same,plasma aldosterone,[2],significantly suppressed
same,plasma angiotensin II,[2],significantly suppressed
same,plasma renin activity,[2],significantly suppressed
same,pulmonary arterial pressure,[2],significantly reduced
same,pulmonary capillary pressure,[2],significantly reduced
same,renal blood flow,[2],significantly enhanced
same,renal vascular resistance,[2],significantly reduced
same,right atrial pressure,[2],significantly reduced
same,urinary excretion of ANP,[2],significantly increased
same,urinary excretion of CNP,[2],significantly increased
same,urinary potassium excretion,[2],significantly increased
same,mean arterial pressure,[2],mild decrease
same,change in renal perfusion pressure from baseline,[4],preserved
same,change in renal perfusion pressure from baseline,[5],preserved
